Laboratory results as given in US20250268903A1, “RXFP1 AGONISTS” (BRISTOL-MYERS SQUIBB COMPANY, priority 2021, published 2025).

Biological target: T1, human RXFP1 (Homo sapiens, UniProt Q9HBX9)
T1 construct: expressed in transfected cells
T1 sequence (Q9HBX9 1-757): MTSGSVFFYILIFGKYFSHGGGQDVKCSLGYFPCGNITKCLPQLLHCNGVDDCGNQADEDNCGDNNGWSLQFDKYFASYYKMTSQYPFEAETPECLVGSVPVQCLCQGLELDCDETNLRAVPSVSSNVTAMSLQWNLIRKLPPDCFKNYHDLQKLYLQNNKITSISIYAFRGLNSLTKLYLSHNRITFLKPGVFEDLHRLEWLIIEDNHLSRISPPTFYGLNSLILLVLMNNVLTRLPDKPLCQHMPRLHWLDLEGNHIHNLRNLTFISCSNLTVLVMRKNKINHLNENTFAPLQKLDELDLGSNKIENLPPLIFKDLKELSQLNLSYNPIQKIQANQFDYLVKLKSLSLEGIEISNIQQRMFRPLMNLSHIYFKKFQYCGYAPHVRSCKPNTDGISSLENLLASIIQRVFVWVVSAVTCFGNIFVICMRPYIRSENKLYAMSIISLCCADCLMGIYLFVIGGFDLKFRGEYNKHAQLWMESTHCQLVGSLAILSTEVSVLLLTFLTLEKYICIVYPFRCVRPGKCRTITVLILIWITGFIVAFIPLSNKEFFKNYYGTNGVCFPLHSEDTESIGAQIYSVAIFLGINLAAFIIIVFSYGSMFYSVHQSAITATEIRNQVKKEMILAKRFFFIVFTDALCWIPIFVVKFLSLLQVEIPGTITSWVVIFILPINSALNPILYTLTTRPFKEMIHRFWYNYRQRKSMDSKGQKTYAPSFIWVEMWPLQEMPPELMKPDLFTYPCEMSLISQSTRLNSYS
Assay: hRXFP1 HEK293 cAMP assay (HTRF)
Type: cell-based
Conditions: HEK293 cells stably expressing human RXFP1, 30 min at room temperature
In short: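 hRXFP1-HEK293 stable line; HBSS + Ca/Mg, 20 mM HEPES, 0.05% BSA, 0.5 mM IBMX; cpd 0.010 nM–50 μM, 2% DMSO; 30 min RT; lysis, HTRF cAMP detection; 4-PL fit.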

Going from `COc1ccc(C#CCCCCO)cc1C(=O)N[C@@H]1C2CCC(/C2=C/C(F)(F)F)[C@@H]1C(=O)Nc1ccc(F)c(C(F)(F)F)c1` (stereo partly drawn) [Example 78, (2S,4R,7Z)-N-[4-fluoro-3-(trifluoromethyl)phe-nyl]-3-[5-(6-hydroxyhex-1-yn-1-yl)-2-methoxybenzamido]-7-(2,2,2-trifluoroethylidene)bi-cyclo[2.2.1]heptane-2-carboxamide] to `COc1ccc(CCCCO)cc1C(=O)N[C@@H]1C2CCC(/C2=C/C(F)(F)F)[C@@H]1C(=O)Nc1ccc(F)c(C(F)(F)F)c1` (stereo partly drawn) [Example 98, (2S,3R,7Z)-N-[4-fluoro-3-(trifluoromethyl)phe-nyl]-3-[5-(4-hydroxybutyl)-2-methoxybenzamido]-7-(2,2,2-trifluoroethylidene)bi-cyclo[2.2.1]heptane-2-carboxamide], the EC50 falls from 229 nM to 111 nM (2.1-fold). The second is the more potent here.

First: COc1ccc(C#CCCOC(=O)NC2CCC2)cc1C(=O)N[C@@H]1C2CCC(/C2=C/C(F)(F)F)[C@@H]1C(=O)Nc1ccc(F)c(C(F)(F)F)c1 (stereo partly drawn) [Example 79, 4-(3-{[(2R,3S,7Z)-3-{[4-fluoro-3-(trifluoromethyl)phe-nyl]carbamoyl}-7-(2,2,2-trifluoroethylidene)bi-cyclo[2.2.1]heptan-2-yl]carbamoyl}-4-methoxyphenyl)but-3-yn-1-yl N-cyclobutylcarbamate]
Second: COc1ccc(C#CCCCOC(=O)NC2CCC2)cc1C(=O)N[C@@H]1C2CCC(/C2=C/C(F)(F)F)[C@@H]1C(=O)Nc1ccc(F)c(C(F)(F)F)c1 (stereo partly drawn) [Example 80, 5-(3-{[(2R,3S,7Z)-3-{[4-fluoro-3-(trifluoromethyl)phe-nyl]carbamoyl}-7-(2,2,2-trifluoroethylidene)bi-cyclo[2.2.1]heptan-2-yl]carbamoyl}-4-methoxyphenyl)pent-4-yn-1-yl N-cyclobutylcarbamate]
The EC50 of the first is 2.9-fold lower: 104 nM for the first, 303 nM for the second. The first is the more potent here.

First: COc1ccc(C#CCCCCOC(=O)NC2CCC2)cc1C(=O)N[C@@H]1C2CCC(/C2=C/C(F)(F)F)[C@@H]1C(=O)Nc1ccc(F)c(C(F)(F)F)c1 (stereo partly drawn) [Example 81, 6-(3-{[(2R,3S,7Z)-3-{[4-fluoro-3-(trifluoromethyl)phe-nyl]carbamoyl}-7-(2,2,2-trifluoroethylidene)bi-cyclo[2.2.1]heptan-2-yl]carbamoyl}-4-methoxyphenyl)hex-5-yn-1-yl N-cyclobutylcarbamate]
Second: COc1ccc(CCCO)cc1C(=O)N[C@@H]1C2CCC(/C2=C/C(F)(F)F)[C@@H]1C(=O)Nc1ccc(F)c(C(F)(F)F)c1 (stereo partly drawn) [Example 84, (2S,3R,7Z)-N-[4-fluoro-3-(trifluoromethyl)phe-nyl]-3-[5-(3-hydroxypropyl)-2-methoxybenzamido]-7-(2,2,2-trifluoroethylidene)bi-cyclo[2.2.1]heptane-2-carboxamide]
The EC50 of the first is 5.6-fold higher: 373 nM for the first, 67 nM for the second.

Going from `COc1ccc(CCC(C)(C)O)cc1C(=O)N[C@@H]1C2CCC(/C2=C/C(F)(F)F)[C@@H]1C(=O)Nc1ccc(F)c(C(F)(F)F)c1` (stereo partly drawn) [Example 82] to `CCCc1ccc(OC)c(C(=O)N[C@@H]2C3CCC(/C3=C/C(F)(F)F)[C@@H]2C(=O)Nc2ccc(F)c(C(F)(F)F)c2)c1` (stereo partly drawn) [Example 85, (2S,3R,7Z)-N-[4-fluoro-3-(trifluoromethyl)phe-nyl]-3-(2-methoxy-5-propylbenzamido)-7-(2,2,2-trifluoroethylidene)bi-cyclo[2.2.1]heptane-2-carboxamide], the EC50 rises from 125 nM to 3000 nM (24-fold).

Going from `COc1ccc(CCC(C)C)cc1C(=O)N[C@@H]1C2CCC(/C2=C/C(F)(F)F)[C@@H]1C(=O)Nc1ccc(F)c(C(F)(F)F)c1` (stereo partly drawn) [Example 83] to `COc1ccc(CC[C@H](C)O)cc1C(=O)N[C@@H]1C2CCC(/C2=C/C(F)(F)F)[C@@H]1C(=O)Nc1ccc(F)c(C(F)(F)F)c1` (stereo partly drawn) [Example 92, (2S,3R,7Z)-N-[4-fluoro-3-(trifluoromethyl)phe-nyl]-3-{5-[(3S)-3-hydroxybutyl]-2-methoxybenzamido}-7-(2,2,2-trifluoroethylidene)bi-cyclo[2.2.1]heptane-2-carboxamide], the EC50 falls from 1710 nM to 172 nM (9.9-fold).

`COc1ccc(CCCO)cc1C(=O)N[C@@H]1C2CCC(/C2=C/C2CCC2)[C@@H]1C(=O)Nc1ccc(F)c(C(F)(F)F)c1` (stereo partly drawn) [Example 86, (2S,3R,7Z)-7-(cyclobutylmethyli-dene)-N-[4-fluoro-3-(trifluoromethyl)phe-nyl]-3-[5-(3-hydroxypropyl)-2-methoxybenzamido] bicyclo[2.2.1]heptane-2-carboxamide] and `COc1ccc(CCCCO)cc1C(=O)N[C@@H]1C2CCC(/C2=C/C2CCC2)[C@@H]1C(=O)Nc1ccc(F)c(C(F)(F)F)c1` (stereo partly drawn) [Example 96, (2S,3R,7Z)-7-(cyclobutylmethyli-dene)-N-[4-fluoro-3-(trifluoromethyl)phe-nyl]-3-[5-(4-hydroxybutyl)-2-methoxybenzamido] bicyclo[2.2.1]heptane-2-carboxamide] are within 1.5-fold of each other in EC50: 45 nM for the first, 46 nM for the second.

Compared with `COc1ccc(CCC(C)(C)O)cc1C(=O)N[C@@H]1C2CCC(/C2=C/C2CCC2)[C@@H]1C(=O)Nc1ccc(F)c(C(F)(F)F)c1` (stereo partly drawn) [Example 87, (2S,3R,7Z)-7-(cyclobutylmethyli-dene)-N-[4-fluoro-3-(trifluoromethyl)phe-nyl]-3-[5-(3-hydroxy-3-methylbutyl)-2-methoxybenzamido] bicyclo[2.2.1]heptane-2-carboxamide], `COc1ccc(CCC(C)(C)O)cc1C(=O)N[C@@H]1C2CCC(/C2=C/C2CC2)[C@@H]1C(=O)Nc1ccc(F)c(C(F)(F)F)c1` (stereo partly drawn) [Example 90, (2S,3R,7Z)-7-(cyclopropylmethyli-dene)-N-[4-fluoro-3-(trifluoromethyl)phe-nyl]-3-[5-(3-hydroxy-3-methylbutyl)-2-methoxybenzamido] bicyclo[2.2.1]heptane-2-carboxamide] is 1.6-fold higher in EC50: 9 nM for the first, 14 nM for the second. The first is the more potent here.

Going from `CCCC/C=C1\C2CCC1[C@H](C(=O)Nc1ccc(F)c(C(F)(F)F)c1)[C@@H]2NC(=O)c1cc(CCC(C)(C)O)ccc1OC` (stereo partly drawn) [Example 89, (2S,3R,7Z)-N-[4-fluoro-3-(trifluoromethyl)phe-nyl]-3-[5-(3-hydroxy-3-methylbutyl)-2-methoxybenzamido]-7-pentylidenebicyclo [2.2.1]heptane-2-carboxamide] to `COc1ccc(CCCO)cc1C(=O)N[C@@H]1C2CCC(/C2=C/C2CC2)[C@@H]1C(=O)Nc1ccc(F)c(C(F)(F)F)c1` (stereo partly drawn) [Example 91, (2S,3R,7Z)-7-(cyclopropylmethyli-dene)-N-[4-fluoro-3-(trifluoromethyl)phe-nyl]-3-[5-(3-hydroxypropyl)-2-methoxybenzamido] bicyclo[2.2.1]heptane-2-carboxamide], the EC50 rises from 45 nM to 70 nM (1.6-fold). The first is the more potent here.

First: COc1ccc(CC[C@@H](C)O)cc1C(=O)N[C@@H]1C2CCC(/C2=C/C(F)(F)F)[C@@H]1C(=O)Nc1ccc(F)c(C(F)(F)F)c1 (stereo partly drawn) [Example 93, (2S,3R,7Z)-N-[4-fluoro-3-(trifluoromethyl)phe-nyl]-3-{5-[(3R)-3-hydroxybutyl]-2-methoxybenzamido}-7-(2,2,2-trifluoroethylidene)bi-cyclo[2.2.1]heptane-2-carboxamide]
Second: COc1ccc(CCCCCO)cc1C(=O)N[C@@H]1C2CCC(/C2=C/C(F)(F)F)[C@@H]1C(=O)Nc1ccc(F)c(C(F)(F)F)c1 (stereo partly drawn) [Example 97, (2S,3R,7Z)-N-[4-fluoro-3-(trifluoromethyl)phe-nyl]-3-[5-(5-hydroxypentyl)-2-methoxybenzamido]-7-(2,2,2-trifluoroethylidene)bi-cyclo[2.2.1]heptane-2-carboxamide]
The EC50 of the first is 3-fold higher: 248 nM for the first, 82 nM for the second.

`COc1ccc(CC[C@H](C)O)cc1C(=O)N[C@@H]1C2CCC(/C2=C/C2CC2)[C@@H]1C(=O)Nc1ccc(F)c(C(F)(F)F)c1` (stereo partly drawn) [Example 94, (2S,3R,7Z)-7-(cyclopropylmethyli-dene)-N-[4-fluoro-3-(trifluoromethyl)phe-nyl]-3-{5-[(3S)-3-hydroxybutyl]-2-methoxybenzamido} bicyclo[2.2.1]heptane-2-carboxamide] and `COc1ccc(CC[C@@H](C)O)cc1C(=O)N[C@@H]1C2CCC(/C2=C/C2CC2)[C@@H]1C(=O)Nc1ccc(F)c(C(F)(F)F)c1` (stereo partly drawn) [Example 95, (2S,3R,7Z)-7-(cyclopropylmethyli-dene)-N-[4-fluoro-3-(trifluoromethyl)phe-nyl]-3-{5-[(3R)-3-hydroxybutyl]-2-methoxybenzamido} bicyclo[2.2.1]heptane-2-carboxamide] are within 1.5-fold of each other in EC50: 62 nM for the first, 50 nM for the second.

`COc1ccc(CCCCCCO)cc1C(=O)N[C@@H]1C2CCC(/C2=C/C(F)(F)F)[C@@H]1C(=O)Nc1ccc(F)c(C(F)(F)F)c1` (stereo partly drawn) [Example 99, (2S,3R,7Z)-N-[4-fluoro-3-(trifluoromethyl)phe-nyl]-3-[5-(6-hydroxyhexyl)-2-methoxybenzamido]-7-(2,2,2-trifluoroethylidene)bi-cyclo[2.2.1]heptane-2-carboxamide] showed an EC50 of 268 nM.
